Data published in ChEMBL document CHEMBL6071165, “Design, synthesis and biological evaluation of plant-derived miliusol derivatives achieve TNBC profound regression in vivo” (Eur J Med Chem, 2024).
pIC50: −log10 of the molar value.

How the values were obtained:
MDA-MB-231 [1] = assay: Antiproliferative activity against human MDA-MB-231 cells assessed as inhibition of cell proliferation incubated for 24 hrs by MTT assay; type: functional, cell-based; conditions: MDA-MB-231, 24 h
BT-549 [2] = assay: Antiproliferative activity against human BT-549 cells assessed as inhibition of cell proliferation incubated for 24 hrs by MTT assay; type: functional, cell-based; conditions: BT-549, 24 h
MDA-MB-231 [3] = assay: Antiproliferative activity against human MDA-MB-231 cells assessed as inhibition of cell proliferation incubated for 48 hrs by MTT assay; type: functional, cell-based; conditions: MDA-MB-231, 48 h
BT-549 [4] = assay: Antiproliferative activity against human BT-549 cells assessed as inhibition of cell proliferation incubated for 48 hrs by MTT assay; type: functional, cell-based; conditions: BT-549, 48 h
[5] = Antiproliferative activity against human MCF-10A cells assessed as inhibition of cell proliferation incubated for 48 hrs by MTT assay; type: toxicity, cell-based
[6] = (§1) Selectivity ratio of IC50 for antiproliferative activity against human MCF-10A cells assessed as inhibition of cell proliferation incubated for 24 hrs by MTT assay to IC50 for antiproliferative activity against human MDA-MB-231 cells assessed as inhibition of cell proliferation incubated for 24 hrs by MTT assay; type: cell-based; conditions: MCF-10A cells versus MDA-MB-231 cells, read-out: Ratio IC50
[7] = as §1, with “48” for “24”, “BT-549” for “MDA-MB-231”; type: toxicity, cell-based; conditions: MCF-10A cells versus BT-549 cells, read-out: Ratio IC50
[8] = as §1, with “BT-549” for “MDA-MB-231”; type: toxicity, cell-based; conditions: MCF-10A cells versus BT-549 cells, read-out: Ratio IC50
[9] = as §1, with “48” for “24”; type: cell-based; conditions: MCF-10A cells versus MDA-MB-231 cells, read-out: Ratio IC50
[10] = Antiproliferative activity against human MCF-10A cells assessed as inhibition of cell proliferation incubated for 24 hrs by MTT assay; type: toxicity, cell-based
BT-549 [11] = assay: Potency index, ratio of miliusol IC50 to test compound IC50 for antiproliferative activity against human BT-549 cells assessed as inhibition of cell proliferation incubated for 48 hrs by MTT assay; type: functional
[12] = Potency index, ratio of miliusol IC50 to test compound IC50 for antiproliferative activity against human MDA-MB-231 cells assessed as inhibition of cell proliferation incubated for 48 hrs by MTT assay; type: functional

SMILES | pIC50 (MDA-MB-231 [1]) | pIC50 (BT-549 [2]) | pIC50 (MDA-MB-231 [3]) | pIC50 (BT-549 [4]) | IC50 at 48 h [5] | selectivity ratio at 24 h [6] | selectivity ratio at 48 h [7] | selectivity ratio at 24 h [8] | selectivity ratio at 48 h [9] | IC50 at 24 h [10] | Ratio IC50 (BT-549 [11]) | Ratio IC50 [12]
CC(C)=CCC/C(C)=C/[C@H]1OC(=O)C[C@]12C[C@H](OC(=O)Cn1cnc3c(=O)n(C)c(=O)n(C)c31)C=CC2=O | 5.55 | 5.27 | 5.35 | 5.46 |  |  |  |  |  |  |  | 
CC(C)=CCC/C(C)=C/[C@H]1OC(=O)C[C@]12C[C@H](OC(=O)Cc1cccs1)C=CC2=O | 5.32 | 4.99 | 5.38 | 5.61 |  |  |  |  |  |  |  | 
CC(C)=CCC/C(C)=C/[C@H]1OC(=O)C[C@]12C[C@H](OC(=O)Cc1ccc(F)cc1Cl)C=CC2=O | 5.51 | 5.31 | 5.29 | 5.67 |  |  |  |  |  |  |  | 
CC(C)=CCC/C(C)=C/[C@H]1OC(=O)C[C@]12C[C@H](OC(=O)Cc1ccc(Cl)cc1Cl)C=CC2=O | 4.72 | 4.81 | 4.45 | 5.08 |  |  |  |  |  |  |  | 
COC(=O)C[C@@]1([C@H](O)/C=C(\C)CCC=C(C)C)C[C@H](O)C=CC1=O [(+)-MILIUSANE XVIII] | 5.09 | 5.38 | 5.37 | 5.65 |  |  |  |  |  |  |  | 
CC(C)=CCC/C(C)=C/[C@H]1OC(=O)C[C@]12C[C@H](OC(=O)Cc1ccc(NC(=O)C3CC3)cc1)C=CC2=O | 5.96 | 5.64 | 6.25 | 6.64 |  |  |  |  |  |  |  | 
CC(C)=CCC/C(C)=C/[C@H]1OC(=O)C[C@]12C[C@H](OC(=O)Cc1ccc(NC(=O)/C=C/c3ccccc3)cc1)C=CC2=O | 6.07 | 6.00 | 6.36 | 6.66 |  |  |  |  |  |  |  | 
CC(=O)O[C@H]1C(=O)[C@@]2(C)[C@H]([C@H](OC(=O)c3ccccc3)[C@]3(O)C[C@H](OC(=O)[C@H](O)[C@@H](NC(=O)c4ccccc4)c4ccccc4)C(C)=C1C3(C)C)[C@]1(OC(C)=O)CO[C@@H]1C[C@@H]2O [PACLITAXEL] | 5.76 | 6.55 | 6.35 | 7.30 | 90 nM | 0.19 | 1.8 | 1.18 | 0.2 | 330 nM |  | 
CC(C)=CCC/C(C)=C/[C@H]1OC(=O)C[C@]12C[C@H](OC(=O)Cc1ccc(NC(=O)c3ccccc3)cc1)C=CC2=O | 5.65 | 6.41 | 6.14 | 6.43 |  |  |  |  |  |  |  | 
CC(C)=CCC/C(C)=C/[C@H]1OC(=O)C[C@]12C[C@H](O)C=CC2=O | 5.38 | 5.31 | 5.33 | 5.52 |  |  |  |  |  |  |  | 
CC(C)=CCC/C(C)=C/[C@H]1OC(=O)C[C@]12C[C@H](OC(=O)Cc1ccc(NC(=O)[C@H](Cl)c3ccccc3)cc1)C=CC2=O | 6.20 | 5.98 | 6.38 | 6.24 |  |  |  |  |  |  |  | 
CC(C)=CCC/C(C)=C/[C@H]1OC(=O)C[C@]12C[C@H](OC(=O)Cc1ccc3c(c1)OCO3)C=CC2=O | 5.65 | 5.17 | 5.56 | 5.47 |  |  |  |  |  |  |  | 
CC(C)=CCC/C(C)=C/[C@H]1OC(=O)C[C@]12C[C@H](OC(=O)Cc1ccc(NC(=O)c3cccs3)cc1)C=CC2=O | 5.79 | 5.65 | 6.34 | 6.19 |  |  |  |  |  |  |  | 
COC(=O)C[C@@]12C[C@@H](C=CC1=O)O[C@@H]2/C=C(\C)CCC=C(C)C | 5.02 | 5.27 | 5.72 | 6.01 |  |  |  |  |  |  |  | 
CC(C)=CCC/C(C)=C/[C@H]1OC(=O)C[C@]12C[C@H](OC(=O)Cc1ccc(F)cc1)C=CC2=O | 5.30 | 5.52 | 5.13 | 5.65 |  |  |  |  |  |  |  | 
CC(C)=CCC/C(C)=C/[C@H]1OC(=O)C[C@]12C[C@H](OC(=O)CNC(=O)OC(C)(C)C)C=CC2=O | 5.78 | 5.68 | 5.49 | 5.94 |  |  |  |  |  |  | 2.7 | 1.5
COc1ccccc1C(=O)Nc1ccc(CC(=O)O[C@@H]2C=CC(=O)[C@@]3(CC(=O)O[C@@H]3/C=C(\C)CCC=C(C)C)C2)cc1 | 5.89 | 5.81 | 6.27 | 6.17 |  |  |  |  |  |  |  | 
CC(C)=CCC/C(C)=C/[C@H]1OC(=O)C[C@]12C[C@H](OC(=O)/C=C/C=C/c1ccc3c(c1)OCO3)C=CC2=O | 5.05 | 4.71 | 5.78 | 5.54 |  |  |  |  |  |  |  | 
CC(C)=CCC/C(C)=C/[C@H]1OC(=O)C[C@]12C[C@H](OC(=O)Cc1ccc(NC(=O)C(C)(C)C)cc1)C=CC2=O | 5.87 | 5.76 | 6.24 | 6.10 |  |  |  |  |  |  |  | 
CC(C)=CCC/C(C)=C/[C@H]1OC(=O)C[C@]12C[C@H](OC(=O)Cn1nnc3ccccc31)C=CC2=O | 5.20 | 5.08 | 5.62 | 5.41 |  |  |  |  |  |  |  | 
CC(C)=CCC/C(C)=C/[C@H]1OC(=O)C[C@]12C[C@H](OC(=O)Cc1ccc(NC(=O)c3ccccc3Cl)cc1)C=CC2=O | 6.02 | 5.61 | 6.24 | 6.08 |  |  |  |  |  |  |  | 
CC(C)=CCC/C(C)=C/[C@H]1OC(=O)C[C@]12C[C@H](OC(=O)CCC(=O)NCC1CC3C=CC1C3)C=CC2=O (stereo not given in full) | 5.48 | 5.48 | 5.87 | 5.81 |  |  |  |  |  |  |  | 
CC(C)=CCC/C(C)=C/[C@H]1OC(=O)C[C@]12C[C@H](OC(=O)c1csc(Br)n1)C=CC2=O | 5.46 | 5.30 | 5.69 | 6.21 |  |  |  |  |  |  | 5 | 
CC(C)=CCC/C(C)=C/[C@H]1OC(=O)C[C@]12C[C@H](OC(=O)c1cc3ccccc3n1C)C=CC2=O | 5.60 | 4.98 | 5.87 | 5.91 |  |  |  |  |  |  |  | 
CCC/C=C/C(=O)O[C@@H]1C=CC(=O)[C@@]2(CC(=O)O[C@@H]2/C=C(\C)CCC=C(C)C)C1 | 4.36 | 4.72 | 4.91 | 4.96 |  |  |  |  |  |  |  | 
COc1cccc(OC)c1C(=O)Nc1ccc(CC(=O)O[C@@H]2C=CC(=O)[C@@]3(CC(=O)O[C@@H]3/C=C(\C)CCC=C(C)C)C2)cc1 | 5.89 | 5.68 | 6.11 | 5.84 |  |  |  |  |  |  |  | 
CC(C)=CCC/C(C)=C/[C@H]1OC(=O)C[C@]12C[C@H](OC(=O)Cc1ccc(NC(=O)OC(C)(C)C)cc1)C=CC2=O | 6.34 | 5.69 | 5.99 | 5.88 |  |  |  |  |  |  |  | 
CC(=O)Nc1ccc(CC(=O)O[C@@H]2C=CC(=O)[C@@]3(CC(=O)O[C@@H]3/C=C(\C)CCC=C(C)C)C2)cc1 | 5.33 | 5.15 | 5.67 | 5.38 |  |  |  |  |  |  |  | 
C=CC(=O)Nc1ccc(CC(=O)O[C@@H]2C=CC(=O)[C@@]3(CC(=O)O[C@@H]3/C=C(\C)CCC=C(C)C)C2)cc1 | 5.34 | 5.06 | 5.79 | 5.51 |  |  |  |  |  |  |  | 
